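Compound exposure: 48 hours, 5 concentrations, 96-well plates. GI50 = concentration required for 50% inhibition of growth. Definition used: TGI = concentration required for complete inhibition of growth.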
Experiments:
Assay in all cases: inhibition of tumour cell growth, NCI panel, 48 h
786-0 renal = system: 786-0 renal
A498 renal = system: A498 renal
A549 NSCLC = system: A549 NSCLC
ACHN renal = system: ACHN renal
BT-549 breast = system: BT-549 breast
CAKI-1 renal = system: CAKI-1 renal
CCRF-CEM leukemia = system: CCRF-CEM leukemia
COLO 205 colon = system: COLO 205 colon
DU-145 prostate = system: DU-145 prostate
EKVX NSCLC = system: EKVX NSCLC
HCC-2998 colon = system: HCC-2998 colon
HCT-116 colon = system: HCT-116 colon
HCT-15 colon = system: HCT-15 colon
HL-60(TB) leukemia = system: HL-60(TB) leukemia
HOP-62 NSCLC = system: HOP-62 NSCLC
HOP-92 NSCLC = system: HOP-92 NSCLC
HS 578T breast = system: HS 578T breast
HT29 colon = system: HT29 colon
IGROV1 ovarian = system: IGROV1 ovarian
K-562 leukemia = system: K-562 leukemia
KM12 colon = system: KM12 colon
LOX IMVI melanoma = system: LOX IMVI melanoma
M14 melanoma = system: M14 melanoma
MALME-3M melanoma = system: MALME-3M melanoma
MCF7 breast = system: MCF7 breast
MDA-MB-231 breast = system: MDA-MB-231 breast
MOLT-4 leukemia = system: MOLT-4 leukemia
NCI-H226 lung = system: NCI-H226 lung
NCI-H23 lung = system: NCI-H23 lung
NCI-H460 lung = system: NCI-H460 lung
NCI-H522 lung = system: NCI-H522 lung
NCI/ADR-RES ovarian = system: NCI/ADR-RES ovarian
OVCAR-4 ovarian = system: OVCAR-4 ovarian
OVCAR-5 ovarian = system: OVCAR-5 ovarian
OVCAR-8 ovarian = system: OVCAR-8 ovarian
PC-3 prostate = system: PC-3 prostate
RPMI-8226 leukemia = system: RPMI-8226 leukemia
RXF 393 renal = system: RXF 393 renal
SF-268 CNS = system: SF-268 CNS
SF-295 CNS = system: SF-295 CNS
SF-539 CNS = system: SF-539 CNS
SK-MEL-2 melanoma = system: SK-MEL-2 melanoma
SK-MEL-28 melanoma = system: SK-MEL-28 melanoma
SK-MEL-5 melanoma = system: SK-MEL-5 melanoma
SK-OV-3 ovarian = system: SK-OV-3 ovarian
SN12C renal = system: SN12C renal
SNB-19 CNS = system: SNB-19 CNS
SNB-75 CNS = system: SNB-75 CNS
SR leukemia = system: SR leukemia
SW-620 colon = system: SW-620 colon
T-47D breast = system: T-47D breast
TK-10 renal = system: TK-10 renal
U251 CNS = system: U251 CNS
UACC-257 melanoma = system: UACC-257 melanoma
UACC-62 melanoma = system: UACC-62 melanoma
UO-31 renal = system: UO-31 renal

COc1ccc(Cn2cc3c(c2-c2cc(OC)c(OC)c(OC)c2)CCc2c(CN4CCOCC4)noc2-3)cc1
GI50 (786-0 renal): 668 nM
TGI (786-0 renal): > 100000 nM
GI50 (A498 renal): 305 nM
TGI (A498 renal): 1030 nM
GI50 (A549 NSCLC): 1130 nM
TGI (A549 NSCLC): > 100000 nM
GI50 (ACHN renal): 718 nM
TGI (ACHN renal): > 100000 nM
GI50 (BT-549 breast): 1140 nM
TGI (BT-549 breast): 4970 nM
GI50 (CAKI-1 renal): 565 nM
TGI (CAKI-1 renal): > 100000 nM
GI50 (CCRF-CEM leukemia): 1070 nM
TGI (CCRF-CEM leukemia): > 100000 nM
GI50 (COLO 205 colon): 1230 nM
TGI (COLO 205 colon): 6080 nM
GI50 (DU-145 prostate): 2190 nM
TGI (DU-145 prostate): > 100000 nM
GI50 (EKVX NSCLC): 1350 nM
TGI (EKVX NSCLC): > 100000 nM
GI50 (HCC-2998 colon): 1740 nM
TGI (HCC-2998 colon): > 100000 nM
GI50 (HCT-116 colon): 443 nM
TGI (HCT-116 colon): > 100000 nM
GI50 (HCT-15 colon): 457 nM
TGI (HCT-15 colon): > 100000 nM
GI50 (HL-60(TB) leukemia): 387 nM
TGI (HL-60(TB) leukemia): 13100 nM
GI50 (HOP-62 NSCLC): 1030 nM
TGI (HOP-62 NSCLC): > 100000 nM
GI50 (HOP-92 NSCLC): 667 nM
TGI (HOP-92 NSCLC): > 100000 nM
GI50 (HS 578T breast): 432 nM
TGI (HS 578T breast): > 100000 nM
GI50 (HT29 colon): 637 nM
TGI (HT29 colon): > 100000 nM
GI50 (IGROV1 ovarian): 871 nM
TGI (IGROV1 ovarian): > 100000 nM
GI50 (K-562 leukemia): 399 nM
TGI (K-562 leukemia): > 100000 nM
GI50 (KM12 colon): 435 nM
TGI (KM12 colon): > 100000 nM
GI50 (LOX IMVI melanoma): 446 nM
TGI (LOX IMVI melanoma): > 100000 nM
GI50 (M14 melanoma): 555 nM
TGI (M14 melanoma): > 100000 nM
GI50 (MALME-3M melanoma): 495 nM
TGI (MALME-3M melanoma): > 100000 nM
GI50 (MCF7 breast): 362 nM
TGI (MCF7 breast): > 100000 nM
GI50 (MDA-MB-231 breast): 2810 nM
TGI (MDA-MB-231 breast): > 100000 nM
GI50 (MOLT-4 leukemia): 2590 nM
TGI (MOLT-4 leukemia): > 100000 nM
GI50 (NCI-H226 lung): 821 nM
TGI (NCI-H226 lung): > 100000 nM
GI50 (NCI-H23 lung): 1850 nM
TGI (NCI-H23 lung): > 100000 nM
GI50 (NCI-H460 lung): 506 nM
TGI (NCI-H460 lung): > 100000 nM
GI50 (NCI-H522 lung): 269 nM
TGI (NCI-H522 lung): 816 nM
GI50 (NCI/ADR-RES ovarian): 450 nM
TGI (NCI/ADR-RES ovarian): > 100000 nM
GI50 (OVCAR-4 ovarian): 18600 nM
TGI (OVCAR-4 ovarian): > 100000 nM
GI50 (OVCAR-5 ovarian): 3220 nM
TGI (OVCAR-5 ovarian): > 100000 nM
GI50 (OVCAR-8 ovarian): 1800 nM
TGI (OVCAR-8 ovarian): > 100000 nM
GI50 (PC-3 prostate): 550 nM
TGI (PC-3 prostate): > 100000 nM
GI50 (RPMI-8226 leukemia): 1160 nM
TGI (RPMI-8226 leukemia): > 100000 nM
GI50 (RXF 393 renal): 382 nM
TGI (RXF 393 renal): > 100000 nM
GI50 (SF-268 CNS): 870 nM
TGI (SF-268 CNS): > 100000 nM
GI50 (SF-295 CNS): 426 nM
TGI (SF-295 CNS): > 100000 nM
GI50 (SF-539 CNS): 448 nM
TGI (SF-539 CNS): > 100000 nM
GI50 (SK-MEL-2 melanoma): 549 nM
TGI (SK-MEL-2 melanoma): > 100000 nM
GI50 (SK-MEL-28 melanoma): > 47700 nM
TGI (SK-MEL-28 melanoma): > 100000 nM
GI50 (SK-MEL-5 melanoma): 1150 nM
TGI (SK-MEL-5 melanoma): 14300 nM
GI50 (SK-OV-3 ovarian): 1470 nM
TGI (SK-OV-3 ovarian): > 100000 nM
GI50 (SN12C renal): 3670 nM
TGI (SN12C renal): > 100000 nM
GI50 (SNB-19 CNS): 1150 nM
TGI (SNB-19 CNS): > 100000 nM
GI50 (SNB-75 CNS): 308 nM
TGI (SNB-75 CNS): > 100000 nM
GI50 (SR leukemia): 350 nM
TGI (SR leukemia): > 100000 nM
GI50 (SW-620 colon): 458 nM
TGI (SW-620 colon): > 100000 nM
TGI (T-47D breast): > 100000 nM
GI50 (TK-10 renal): > 100000 nM
TGI (TK-10 renal): > 100000 nM
GI50 (U251 CNS): 779 nM
TGI (U251 CNS): > 100000 nM
GI50 (UACC-257 melanoma): 963 nM
TGI (UACC-257 melanoma): > 100000 nM
GI50 (UACC-62 melanoma): 488 nM
TGI (UACC-62 melanoma): > 100000 nM
GI50 (UO-31 renal): 674 nM
TGI (UO-31 renal): > 100000 nM

Reference: PubChem BioAssay (NCI)
